The values that follow come from patent US20230085307A1, “PYRIDAZINONE COMPOUND AND HERBICIDE” (NISSAN CHEMICAL CORPORATION, priority 2019, published 2023).

In one assay the test system is persian speedwell. The assay is described as follows: Test Example 4: herbicidal effect by soil treatment (Table 19, symbol R). It counts as in vivo, Persian speedwell (Veronica persica). Particulars: amount of applied herbicide 320 g/ha. The method, boiled down:
(§1)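 Soil-surface application: an emulsion agent diluted with water to the predetermined dose is sprayed uniformly over seeds lying under roughly 1.5 cm of sterilized diluvial soil. Boxes stay in a greenhouse at 25° C. to 30° C. Three weeks later, each species is graded on previously defined criteria.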

For assay [1], the system named is barnyard grass. Put plainly: Test Example 4: herbicidal effect by soil treatment (Table 19, symbol H). The format is in vivo, barnyard grass (Echinochloa crus-galli). Particulars: amount of applied herbicide 320 g/ha. The method in brief: as §1
For another assay, the system named is blackgrass. The assay is described as follows: Test Example 4: herbicidal effect by soil treatment (Table 19, symbol J). It counts as in vivo, blackgrass (Alopecurus myosuroides). The note with it: amount of applied herbicide 320 g/ha. The method in brief:
as §1

The next assay relates to velvetleaf. Put plainly: Test Example 4: herbicidal effect by soil treatment (Table 19, symbol M). It counts as in vivo, velvetleaf (Abutilon theophrasti). The note with it: amount of applied herbicide 320 g/ha. The method in brief: as §1
The test system of a further assay is chickweed. Put plainly: Test Example 4: herbicidal effect by soil treatment (Table 19, symbol P). It counts as in vivo, common chickweed (Stellaria media). Particulars: amount of applied herbicide 320 g/ha. The method, boiled down: as §1
The test system of assay [2] is barnyard grass. The assay is described as follows: Test Example 3: herbicidal effect by foliage application, Wagner pot (Table 18, symbol H). The note with it: amount of applied herbicide 320 g/ha. The format is in vivo, barnyard grass (Echinochloa crus-galli). The method in brief: (§2)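 Plants were sown in alluvial soil held under 0.1–0.5 cm standing water and grown 14 days in a greenhouse at 25–30 °C. An emulsifiable formulation, water-diluted to the set dose, was then sprayed onto the foliage, and effects were scored three weeks later using previously defined criteria.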

Another assay has as its system lambsquarters. The assay is described as follows: Test Example 4: herbicidal effect by soil treatment (Table 19, symbol O). The format is in vivo, lambsquarters (Chenopodium album). The note with it: amount of applied herbicide 320 g/ha. The method in brief:
as §1

Assay [3] concerns oval-leafed pondweed. The assay is described as follows: Test Example 1: herbicidal activity, application before weed generation under submerged conditions (Table 16, symbol C). It counts as in vivo, oval-leafed pondweed (Monochoria vaginalis). Particulars: 320 g/ha applied herbicide. The method, boiled down:
(§3)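 Alluvial soil was flooded to 4 cm depth, weed seeds were sown mixed and 2.5-leaf rice seedlings were transplanted. On sowing day, the compound's emulsion, diluted in water to a set dose, was applied to the water surface. Plants grew at 25–30 °C and were scored 0–5 after three weeks.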

The test system of another assay is rice flat sedge. The assay is described as follows: Test Example 3: herbicidal effect by foliage application, Wagner pot (Table 18, symbol E). It counts as in vivo, rice flat sedge (Cyperus iria). The note with it: amount of applied herbicide 320 g/ha. The method in brief:
as §2

A further assay concerns wild oat. The assay is described as follows: Test Example 4: herbicidal effect by soil treatment (Table 19, symbol I). It counts as in vivo, wild oat (Avena fatua). Particulars: amount of applied herbicide 320 g/ha. The method in brief: as §1
A further assay relates to windgrass. The assay is described as follows: Test Example 4: herbicidal effect by soil treatment (Table 19, symbol L). It counts as in vivo, windgrass (Apera spica-venti). Particulars: amount of applied herbicide 320 g/ha. The method, boiled down: as §1
Assay [4] concerns oval-leafed pondweed. Put plainly: Test Example 2: herbicidal activity, application during weed generation under submerged conditions (Table 17, symbol C). The format is in vivo, oval-leafed pondweed (Monochoria vaginalis). Particulars: AAH 320 g/ha; application during weed generation, submerged conditions. The method, boiled down:
(§4)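 3-wk visual-criteria score after one water-surface dose. Emulsion formulation, water-diluted to set rate; applied at 1–2 leaf stage; alluvial soil, 4 cm standing water; seeds co-sown; greenhouse 25–30° C.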

For assay [5], the system named is Japanese bulrush. Put plainly: Test Example 1: herbicidal activity, application before weed generation under submerged conditions (Table 16, symbol B). Particulars: 320 g/ha applied herbicide. The format is in vivo, Japanese bulrush (Schoenoplectus juncoides). The method, boiled down:
as §3

In assay [6] the test system is Japanese bulrush. The assay is described as follows: Test Example 2: herbicidal activity, application during weed generation under submerged conditions (Table 17, symbol B). It counts as in vivo, Japanese bulrush (Schoenoplectus juncoides). Particulars: AAH 320 g/ha; application during weed generation, submerged conditions. The method in brief:
as §4

The subject of a further assay is Chinese sprangletop. The assay is described as follows: Test Example 3: herbicidal effect by foliage application, Wagner pot (Table 18, symbol D). Particulars: amount of applied herbicide 320 g/ha. The format is in vivo, chinese sprangletop (Leptochloa chinensis). The method in brief:
as §2

For assay [7], the system named is late watergrass. The assay is described as follows: Test Example 1: herbicidal activity, application before weed generation under submerged conditions (Table 16, symbol A). The format is in vivo, late watergrass (Echinochloa oryzicola). The note with it: 320 g/ha applied herbicide. The method, boiled down:
as §3

The next assay concerns redroot pigweed. The assay is described as follows: Test Example 4: herbicidal effect by soil treatment (Table 19, symbol N). The note with it: amount of applied herbicide 320 g/ha. The format is in vivo, redroot pigweed (Amaranthus retroflexus). The method, boiled down: as §1
Another assay relates to Italian ryegrass. The assay is described as follows: Test Example 4: herbicidal effect by soil treatment (Table 19, symbol K). The format is in vivo, Italian ryegrass (Lolium multiflorum). The note with it: amount of applied herbicide 320 g/ha. The method in brief: as §1
Another assay concerns green foxtail. Put plainly: Test Example 4: herbicidal effect by soil treatment (Table 19, symbol G). The format is in vivo, green foxtail (Setaria viridis). Particulars: amount of applied herbicide 320 g/ha. The method, boiled down:
as §1

The next assay concerns southern crabgrass. Put plainly: Test Example 4: herbicidal effect by soil treatment (Table 19, symbol F). The format is in vivo, southern crabgrass (Digitaria ciliaris). Particulars: amount of applied herbicide 320 g/ha. The method, boiled down: as §1
The subject of assay [8] is late watergrass. The assay is described as follows: Test Example 2: herbicidal activity, application during weed generation under submerged conditions (Table 17, symbol A). The format is in vivo, late watergrass (Echinochloa oryzicola). Particulars: AAH 320 g/ha; application during weed generation, submerged conditions. The method in brief: as §4

For the molecule `CCCC(=O)Oc1c(C)nn(C)c(=O)c1-c1c(-c2ccc(Cl)cc2F)sc2ccc(F)cc12` [2-349], the “herbicidal effect on R: persian speedwell” value with persian speedwell was 4 (Herbicidal rate of 70% or more and less than 90%). The “herbicidal effect on H: barnyard grass” value in the assay on barnyard grass [1] is 0 (Herbicidal rate of 5% or less (almost no effect)); in the assay with barnyard grass [2], 5 (Herbicidal rate of 90% or more (almost completely withered)). For the same molecule, in the assay with blackgrass, the “herbicidal effect on J: blackgrass” value is recorded as 0 (Herbicidal rate of 5% or less (almost no effect)). The “herbicidal effect on M: velvetleaf” value in the assay with velvetleaf is 0 (Herbicidal rate of 5% or less (almost no effect)). Moreover, the “herbicidal effect on P: chickweed” value in the assay with chickweed was 3 (Herbicidal rate of 40% or more and less than 70%). Further, the “herbicidal effect on O: lambsquarters” value in the assay with lambsquarters is on record as 0 (Herbicidal rate of 5% or less (almost no effect)). Besides, in the assay with oval-leafed pondweed [3], the “Herbicidal effect on C: oval-leafed pondweed (grade 0-5)” value is reported as 0 (Herbicidal rate of 5% or less (almost no effect)). Further, the “herbicidal effect on E: rice flat sedge” value with rice flat sedge is 4 (Herbicidal rate of 70% or more and less than 90%). Besides, the “herbicidal effect on I: wild oat” value with wild oat was 0 (Herbicidal rate of 5% or less (almost no effect)). The “herbicidal effect on L: windgrass” value in the assay with windgrass is given as 0 (Herbicidal rate of 5% or less (almost no effect)). Also, in the assay on oval-leafed pondweed [4], the “herbicidal effect rating, C: oval-leafed pondweed” value was 3 (Herbicidal rate of 40% or more and less than 70%). Moreover, the “Herbicidal effect on B: Japanese bulrush (grade 0-5)” value in the assay with Japanese bulrush [5] is on record as 0 (Herbicidal rate of 5% or less (almost no effect)). Besides, the “herbicidal effect rating, B: Japanese bulrush” value with Japanese bulrush [6] is 3 (Herbicidal rate of 40% or more and less than 70%). The “herbicidal effect on D: Chinese sprangletop” value in the assay with Chinese sprangletop is given as 5 (Herbicidal rate of 90% or more (almost completely withered)). The “Herbicidal effect on A: late watergrass (grade 0-5)” value in the assay with late watergrass [7] was 3 (Herbicidal rate of 40% or more and less than 70%). Also, the “herbicidal effect on N: redroot pigweed” value with redroot pigweed was 0 (Herbicidal rate of 5% or less (almost no effect)). Besides, the “herbicidal effect on K: Italian ryegrass” value in the assay on Italian ryegrass is 4 (Herbicidal rate of 70% or more and less than 90%). Further, the “herbicidal effect on G: green foxtail” value in the assay on green foxtail was 0 (Herbicidal rate of 5% or less (almost no effect)). The “herbicidal effect on F: southern crabgrass” value with southern crabgrass is reported as 0 (Herbicidal rate of 5% or less (almost no effect)). Further, the “herbicidal effect rating, A: late watergrass” value in the assay on late watergrass [8] was 3 (Herbicidal rate of 40% or more and less than 70%).
